pIC50: −log10 of the molar value.
Key:
BACE1 = target: T1, BACE1 (Homo sapiens, UniProt P56817); test: Cellular Aβ-lowering assay (Abeta 40 AlphaLISA, HEK293 APP cells); format: cell-based; conditions: 18-20 hrs incubation, Aβ40 in culture supernatant, read-out: BACE1 cell act. Aβ40 IC50
T1 construct: endogenous in cells; host or cells: HEK293 APP cells
Procedure, shortened: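 APP-expressing HEK293 cells exposed to compounds for 18-20 h at 37° C. (1% DMSO final). Secreted Aβ1-40 in supernatant measured by AlphaLISA (615 nm emission), expressed as percent of DMSO-only signal, and IC50 fitted.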

[1] = system: Aβ40 in brain of wild-type mice; test: Lowering of Aβ40 in brain of wild-type mice; format: in vivo; conditions: Mus musculus, po; female C57Bl/6J mice, 30 mg/kg per os, 4 h; brain Aβ40 related to the value in the vehicle group; read-out: Aβ40 (wt mice, brain)
Method: Lowering of Aβ40 in Brain of Wild-Type Mice:
Animals and Housing Conditions.
Animals were maintained in a 12/12 h light/dark cycle, with lights starting at 6 a.m., and experiments were conducted during the light phase. Animal housing and experimental procedures were in line with ethical and legal guidelines and were authorized by local veterinary authorities.
Experiment. Female C57Bl/6J mice were treated with a dose of 30 mg/kg of the compounds, 3-4 animals per treatment group. The test compound was dissolved in 5% EtOH, 10% Solutol, and was applied per os at 10 mL/kg. After 4 h, the animals were sacrificed and brain and plasma were collected. The brain was cut into halves and immediately frozen on dry ice. Brain was used for measurement of Aβ40 and plasma was used for determination of compound exposure. […] Brain tissue was homogenized in 2% DEA buffer in a Roche MagnaLyser (20″, 4000 rpm) and subsequently centrifuged for 1 h at 100000 g. DEA was reduced to 0.2% in 50 mM NaCl and one-half of the DEA lysate was passed over an Oasis Solid phase extraction plate (Waters; cat. no. 186000679), which had been activated with MeOH and equilibrated in dH2O (1 mL each). After washes in 10% and 30% MeOH (1 mL each), the Aβ-peptides were eluted in 0.8 mL of 2% NH4OH in 90% MeOH. The eluate was dried over a N2 flow, and the dried sample was reconstituted in 30 μL of AlphaLISA assay buffer. Aβ40 was determined by an AlphaLISA assay (Perkin-Elmer). In a white 96-well, half area microplate (Perkin-Elmer cat. no. 6005561), 20 μL of the reconstituted sample were mixed with 5 μL of biotinylated BAP-24 (specific for C-terminus of Aβ40) (Brockhaus, M.; Grunberg, J.; Rohrig, S.; Loetscher, H.; Wittenburg, N.; Baumeister, R.; Jacobsen, H.; Haass, C. Caspasemediated cleavage is not required for the activity of presenilins in amyloidogenesis and NOTCH signaling. NeuroReport 1998, 9, 1481-1486.) stock=4.4 mg/mL, f.c.5.5 μg/mL), and 5 μL 252Q6 acceptor beads (252Q6 antibody, Invitrogen AMB0062) had been previously conjugated with AlphaLISA Acceptor beads (Perkin-Elmer cat. no. 6772002); final dilution 1:500). The mix was incubated for 1 h at RT in the dark. Then 20 μL of Streptavin-coated Donor Beads (Perkin-Elmer cat. no. 6760002, final dilution 1:125) were added and this final mix was incubated in the dark for another 30 min at RT before RFU was measured in an AlphaScreen Reader (Perkin-Elmer Envision 2104). The value obtained for Aβ40 in the treated animals was related to the value in the vehicle group and is given in %. Alternatively a commercial ELISA was used for Aβ40 determination (Wako ELISA: (“Human/Rat β Amyloid (40) ELISA kit Wako II”; cat nr. 294-64701) following the manufacture's instruction. Also here the Aβ-lowering efficacy was calculated as percentage of the vehicle group.

T1 sequence (P56817 46-501): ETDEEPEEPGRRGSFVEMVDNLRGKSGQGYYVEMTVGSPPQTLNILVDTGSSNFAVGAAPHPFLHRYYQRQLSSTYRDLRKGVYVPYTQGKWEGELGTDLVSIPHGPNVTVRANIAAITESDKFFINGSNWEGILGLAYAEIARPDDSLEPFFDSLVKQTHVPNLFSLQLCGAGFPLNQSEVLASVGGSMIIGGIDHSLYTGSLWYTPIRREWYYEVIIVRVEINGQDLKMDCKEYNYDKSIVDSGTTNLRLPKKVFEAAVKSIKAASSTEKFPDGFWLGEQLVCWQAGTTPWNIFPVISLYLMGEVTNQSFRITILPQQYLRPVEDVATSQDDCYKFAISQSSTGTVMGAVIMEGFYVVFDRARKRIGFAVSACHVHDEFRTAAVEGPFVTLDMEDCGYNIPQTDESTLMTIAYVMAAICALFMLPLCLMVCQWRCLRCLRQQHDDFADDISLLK

SMILES	pIC50 (BACE1)	response vs control in vivo at 30 mg/kg [1]
Cc1cc(C#N)cnc1C(=O)Nc1ccc(F)c([C@@]2(C)N=C(N)C(C)(C)[S@]3(=O)=NCCC[C@@H]23)n1 [Example 1BB, N-(6-((4aS,5R,9S)-7-amino-5,8,8-trimethyl-9-oxido-2,3,4,4a,5,8-hexahydro-[1,4]thiazino[2,1-f][1,2]thiazin-5-yl)-5-fluoropyridin-2-yl)-5-cyano-3-methylpicolinamide]	8.41	93%
CC1(C)C(N)=N[C@](C)(c2nc(NC(=O)c3ccc(OC(F)F)cn3)ccc2F)[C@H]2CC(F)(F)CN=[S@@]21=O [Example 35AA, N-(6-((4aR,5R,9R)-7-amino-3,3-difluoro-5,8,8-trimethyl-9-oxido-2,3,4,4a,5,8-hexahydro-[1,4]thiazino[2,1-f][1,2]thiazin-5-yl)-5-fluoropyridin-2-yl)-5-(difluoromethoxy)picolinamide]	7.06	101%
Cc1cc(C#N)cnc1C(=O)Nc1ccc(F)c([C@@]2(C)N=C(N)C(C)(C)[S@@]3(=O)=NCC(F)(F)C[C@H]23)n1 [Example 32AA, N-(6-((4aR,5R,9R)-7-amino-3,3-difluoro-5,8,8-trimethyl-9-oxido-2,3,4,4a,5,8-hexahydro-[1,4]thiazino[2,1-f][1,2]thiazin-5-yl)-5-fluoropyridin-2-yl)-5-cyano-3-methylpicolinamide]	8.92	53%
CC1(C)C(N)=N[C@](C)(c2nc(NC(=O)c3ncc(OC(F)F)cc3Cl)ccc2F)[C@H]2CC3(CC3)CN=[S@@]21=O [Example 50AA, N-(6-((4aR,5R,9R)-7-amino-5,8,8-trimethyl-9-oxido-4,4a,5,8-tetrahydro-2H-spiro[[1,4]thiazino[2,1-f][1,2]thiazine-3,1′-cyclopropan]-5-yl)-5-fluoropyridin-2-yl)-3-chloro-5-(difluoromethoxy)picolinamide]	7.80	117%
COc1cnc(C(=O)Nc2ccc(F)c([C@@]3(C)N=C(N)C(C)(C)[S@]4(=O)=NCCC[C@H]34)n2)cn1 [Example 2BA, N-(6-((4aR,5R,9S)-7-amino-5,8,8-trimethyl-9-oxido-2,3,4,4a,5,8-hexahydro-[1,4]thiazino[2,1-f][1,2]thiazin-5-yl)-5-fluoropyridin-2-yl)-5-methoxypyrazine-2-carboxamide]	7.66	87%
CC1(C)C(N)=N[C@](C)(c2nc(NC(=O)c3ncc(C#N)cc3Cl)ccc2F)[C@H]2CCN=[S@]21=O [Example 25BA, N-(6-((3aR,4R,8S)-6-amino-4,7,7-trimethyl-8-oxido-3,3a,4,7-tetrahydro-2H-isothiazolo[1,5-a][1,4]thiazin-4-yl)-5-fluoropyridin-2-yl)-3-chloro-5-cyanopicolinamide]	7.81	117%

The remaining compounds from weak to strong by pIC50 (BACE1), led by results:

pIC50 (BACE1)	SMILES	response vs control in vivo at 30 mg/kg [1]
7.05	CC1(C)C(N)=N[C@](C)(c2nc(NC(=O)c3ccc(F)cn3)ccc2F)[C@H]2CC(F)(F)CN=[S@@]21=O [Example 33AA, N-(6-((4aR,5R,9R)-7-amino-3,3-difluoro-5,8,8-trimethyl-9-oxido-2,3,4,4a,5,8-hexahydro-[1,4]thiazino[2,1-f][1,2]thiazin-5-yl)-5-fluoropyridin-2-yl)-5-fluoropicolinamide]	83%
7.71	COc1cnc(C(=O)Nc2ccc(F)c([C@@]3(C)N=C(N)C(C)(C)[S@@]4(=O)=NCCC[C@H]34)n2)cn1 [Example 2AA, N-(6-((4aR,5R,9R)-7-amino-5,8,8-trimethyl-9-oxido-2,3,4,4a,5,8-hexahydro-[1,4]thiazino[2,1-f][1,2]thiazin-5-yl)-5-fluoropyridin-2-yl)-5-methoxypyrazine-2-carboxamide]	83%
8.00	Cc1cc(F)cnc1C(=O)Nc1ccc(F)c([C@@]2(C)N=C(N)C(C)(C)[S@@]3(=O)=NCC[C@@H]23)n1 [Example 10AB, N-(6-((3aS,4R,8R)-6-amino-4,7,7-trimethyl-8-oxido-3,3a,4,7-tetrahydro-2H-isothiazolo[1,5-a][1,4]thiazin-4-yl)-5-fluoropyridin-2-yl)-5-fluoro-3-methylpicolinamide]	71%
8.01	CC1(C)C(N)=N[C@](C)(c2nc(NC(=O)c3ccc(C#N)cn3)ccc2F)[C@H]2CC(F)(F)CN=[S@@]21=O [Example 34AA, N-(6-((4aR,5R,9R)-7-amino-3,3-difluoro-5,8,8-trimethyl-9-oxido-2,3,4,4a,5,8-hexahydro-[1,4]thiazino[2,1-f][1,2]thiazin-5-yl)-5-fluoropyridin-2-yl)-5-cyanopicolinamide]	113%
8.31	CC1(C)C(N)=N[C@](C)(c2nc(NC(=O)c3ncc(Cl)cc3Cl)ccc2F)[C@H]2CC(F)(F)CN=[S@@]21=O [Example 40AA, N-(6-((4aR,5R,9R)-7-amino-3,3-difluoro-5,8,8-trimethyl-9-oxido-2,3,4,4a,5,8-hexahydro-[1,4]thiazino[2,1-f][1,2]thiazin-5-yl)-5-fluoropyridin-2-yl)-3,5-dichloropicolinamide]	77%
8.89	Cc1cc(Cl)cnc1C(=O)Nc1ccc(F)c([C@@]2(C)N=C(N)C(C)(C)[S@@]3(=O)=NCC[C@@H]23)n1 [Example 12AB, N-(6-((3aS,4R,8R)-6-amino-4,7,7-trimethyl-8-oxido-3,3a,4,7-tetrahydro-2H-isothiazolo[1,5-a][1,4]thiazin-4-yl)-5-fluoropyridin-2-yl)-5-chloro-3-methylpicolinamide]	38%

Source: US9540397B2, “BACE1 inhibitors” (Hoffmann-La Roche Inc., priority 2014, dated 2017)
